Results: ChEMBL document CHEMBL1201862, “PubChem BioAssay data set” (2004)
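Cultured in 96-well plates, cells were exposed to test compound for 48 hours across five concentrations. GI50 marks 50% less growth.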 Active and inactive are the calls of the source. Cut-off read from the data, not from the text of the source: active = GI50 up to about 1.1 µM and inactive = higher.

What was measured:
Assay in all cases: NCI anticancer screen, dose series, 48 h
ACHN = tested on: ACHN
Malme-3M = tested on: Malme-3M
M19-MEL = tested on: M19-MEL
COLO 205 = tested on: COLO 205
OVCAR-3 = tested on: OVCAR-3
CAKI-1 = tested on: CAKI-1
NCI-H460 = tested on: NCI-H460
OVCAR-5 = tested on: OVCAR-5
KM12 = tested on: KM12
NCI-H226 = tested on: NCI-H226
LXFL 529 = tested on: LXFL 529
HT-29 = tested on: HT-29
SNB-19 = tested on: SNB-19
SNB-78 = tested on: SNB-78
K562 = tested on: K562
SK-MEL-5 = tested on: SK-MEL-5
DLD-1 = tested on: DLD-1
RXF 393 = tested on: RXF 393
SR = tested on: SR

Measured: GI50

COc1ccc2c(c1)CC[C@@H]1C2CC[C@]2(C)C(=N\O)/C(=N/O)CC12 (stereo partly specified)
inactive: ACHN 15.7 µM | Malme-3M 17.7 µM | M19-MEL 17.2 µM | COLO 205 14.3 µM | OVCAR-3 12.4 µM | CAKI-1 10.7 µM | NCI-H460 3.41 µM | OVCAR-5 12.4 µM | KM12 11.2 µM | NCI-H226 11 µM | LXFL 529 12.8 µM | HT-29 2.24 µM | SNB-19 16.6 µM | SNB-78 17 µM | K562 8.32 µM | SK-MEL-5 12.7 µM | DLD-1 13.1 µM

O=C1CCCC/C1=C1\C(=O)Nc2cc(F)ccc21
inactive: ACHN > 100 µM | Malme-3M > 100 µM | M19-MEL > 100 µM | COLO 205 > 100 µM | RXF 393 > 100 µM | CAKI-1 > 100 µM | NCI-H460 > 100 µM | OVCAR-5 > 100 µM | KM12 > 100 µM | NCI-H226 > 100 µM | LXFL 529 > 100 µM | HT-29 > 100 µM | SNB-19 > 100 µM | SNB-78 > 100 µM | K562 > 100 µM | SK-MEL-5 > 100 µM | DLD-1 > 100 µM

COc1ccc2cc3nc(O)cc(O)c3cc2c1OC
inactive: ACHN > 100 µM | Malme-3M > 100 µM | M19-MEL > 100 µM | SR > 100 µM | RXF 393 > 100 µM | OVCAR-3 > 100 µM | CAKI-1 > 100 µM | NCI-H460 > 100 µM | OVCAR-5 > 100 µM | KM12 > 100 µM | NCI-H226 > 100 µM | LXFL 529 > 100 µM | HT-29 > 100 µM | SNB-19 > 100 µM | SNB-78 > 100 µM | K562 > 100 µM

COc1ccc(C2=NNC(=O)OC2c2ccccc2)cc1 (stereo unspecified)
inactive: ACHN > 100 µM | Malme-3M 52.8 µM | M19-MEL 55.7 µM | SR 55.2 µM | COLO 205 78.2 µM | RXF 393 38 µM | OVCAR-3 81.8 µM | CAKI-1 92.3 µM | NCI-H460 53.2 µM | OVCAR-5 > 100 µM | KM12 40.9 µM | NCI-H226 34.3 µM | LXFL 529 70 µM | HT-29 38 µM | SNB-19 67.1 µM | SNB-78 95.7 µM | K562 26.7 µM

Clc1ccccc1C1=NN(c2ccccc2)C2c3cc(Br)ccc3OCC12 (stereo unspecified)
inactive: ACHN > 100 µM | Malme-3M > 100 µM | M19-MEL > 100 µM | COLO 205 > 100 µM | RXF 393 > 100 µM | OVCAR-3 > 100 µM | NCI-H460 > 100 µM | OVCAR-5 > 100 µM | KM12 > 100 µM | LXFL 529 > 100 µM | HT-29 > 100 µM | SNB-19 > 100 µM | SNB-78 > 100 µM | K562 > 100 µM | DLD-1 > 100 µM

O=C(O)c1ccc(O)c(/N=N/c2cc(S(=O)(=O)O)c3ccccc3c2O)c1
inactive: ACHN > 100 µM | Malme-3M > 100 µM | M19-MEL 55.6 µM | SR > 100 µM | COLO 205 39.8 µM | RXF 393 > 100 µM | OVCAR-3 92.3 µM | CAKI-1 54.3 µM | NCI-H460 37.2 µM | OVCAR-5 > 100 µM | KM12 > 100 µM | NCI-H226 > 100 µM | HT-29 50.7 µM | SNB-19 > 100 µM | SNB-78 > 100 µM | K562 > 100 µM | SK-MEL-5 > 100 µM | DLD-1 > 100 µM

C/C(CC(=O)Nc1ccc(C)c(C)c1)=N\NC(N)=S
inactive: ACHN > 100 µM | Malme-3M > 100 µM | COLO 205 > 100 µM | RXF 393 > 100 µM | OVCAR-3 > 100 µM | NCI-H460 > 100 µM | OVCAR-5 > 100 µM | KM12 > 100 µM | NCI-H226 > 100 µM | LXFL 529 > 100 µM | HT-29 > 100 µM | SNB-78 > 100 µM | K562 > 100 µM | SK-MEL-5 > 100 µM | DLD-1 > 100 µM

Fc1ccc2c(c1)SC1Oc3ccccc3-c3c1c-2nn3-c1ccccc1 (stereo unspecified)
inactive: ACHN > 100 µM | Malme-3M > 100 µM | M19-MEL > 100 µM | COLO 205 > 100 µM | RXF 393 46.9 µM | OVCAR-3 > 100 µM | NCI-H460 > 100 µM | OVCAR-5 > 100 µM | KM12 > 100 µM | LXFL 529 > 100 µM | HT-29 > 100 µM | SNB-78 > 100 µM | K562 > 100 µM | DLD-1 > 100 µM

COc1c(Sc2ccccc2)cc(Sc2ccccc2)c2cccnc12
inactive: ACHN 26.8 µM | Malme-3M 15.1 µM | M19-MEL 28.9 µM | COLO 205 19.6 µM | RXF 393 11.8 µM | OVCAR-3 20.9 µM | CAKI-1 12.9 µM | NCI-H460 20.2 µM | OVCAR-5 40.2 µM | KM12 24.4 µM | LXFL 529 30.8 µM | HT-29 24.9 µM | SNB-19 31.8 µM | SNB-78 34 µM | K562 23.7 µM | SK-MEL-5 16.4 µM | DLD-1 27.9 µM
